# US10231954B2, “Neurodegenerative therapies” (LYTIX BIOPHARMA AS, priority 2014, dated 2019)
# Tests used:
# Type in all cases: biochemical
# PLK1 = PLK1 (Homo sapiens, UniProt P53350); test: Kinase profiling PLK1; conditions: 100 micromolar inhibitor concentration, 100 is no change; for remaining activity at 100 µM: read-out: residual kinase activity, PLK1
# Description: (§1) Any value less that 25 is considered to be highly significant inhibition.
# HIPK2 = HIPK2 (Homo sapiens, UniProt Q9H2X6); test: Kinase profiling HIPK2; conditions: 100 micromolar inhibitor concentration, 100 is no change; for remaining activity at 100 µM: read-out: residual kinase activity, HIPK2
# Description: as §1
# PRK2 = PRK2 (Homo sapiens, UniProt Q16513); test: Kinase profiling PRK2; conditions: 100 micromolar inhibitor concentration, 100 is no change; for remaining activity at 100 µM: read-out: residual kinase activity, PRK2
# Sequence of PRK2 (Q16513 whole entry, species assumed): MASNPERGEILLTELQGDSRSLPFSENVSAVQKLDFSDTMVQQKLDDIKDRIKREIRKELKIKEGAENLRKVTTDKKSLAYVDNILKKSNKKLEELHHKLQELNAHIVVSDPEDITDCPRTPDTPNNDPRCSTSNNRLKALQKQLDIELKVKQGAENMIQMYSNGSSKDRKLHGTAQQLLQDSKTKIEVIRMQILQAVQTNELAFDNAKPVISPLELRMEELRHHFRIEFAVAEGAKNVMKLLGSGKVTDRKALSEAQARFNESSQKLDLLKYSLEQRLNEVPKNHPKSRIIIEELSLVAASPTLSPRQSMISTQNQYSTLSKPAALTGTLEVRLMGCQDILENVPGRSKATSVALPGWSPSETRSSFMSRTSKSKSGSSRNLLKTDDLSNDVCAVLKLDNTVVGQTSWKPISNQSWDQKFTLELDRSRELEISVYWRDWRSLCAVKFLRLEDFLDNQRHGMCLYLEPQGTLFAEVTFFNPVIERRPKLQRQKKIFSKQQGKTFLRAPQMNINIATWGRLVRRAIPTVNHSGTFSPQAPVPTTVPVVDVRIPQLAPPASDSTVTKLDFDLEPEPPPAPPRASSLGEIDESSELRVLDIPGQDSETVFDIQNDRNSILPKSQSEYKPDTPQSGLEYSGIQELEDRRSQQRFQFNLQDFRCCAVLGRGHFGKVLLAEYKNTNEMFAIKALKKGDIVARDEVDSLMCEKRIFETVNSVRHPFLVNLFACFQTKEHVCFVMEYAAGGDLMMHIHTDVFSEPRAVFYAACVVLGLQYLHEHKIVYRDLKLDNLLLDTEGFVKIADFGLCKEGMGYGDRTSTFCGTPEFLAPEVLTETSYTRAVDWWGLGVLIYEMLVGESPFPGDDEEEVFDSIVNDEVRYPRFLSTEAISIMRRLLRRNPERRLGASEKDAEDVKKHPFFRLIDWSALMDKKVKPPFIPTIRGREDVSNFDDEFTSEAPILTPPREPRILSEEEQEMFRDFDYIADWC
# Description: as §1
# DYRK1A = DYRK1A (Homo sapiens, UniProt Q13627); test: DYRK 1A assay (kinase profiling); conditions: 100 micromolar inhibitor concentration, 100 is no change; for remaining activity at 100 µM: read-out: residual kinase activity, DYRK1A
# Experimental: Assays are stopped by addition of 5 μl of 0.5 M (3%) orthophosphoric acid and then harvested onto P81 Unifilter plates with a wash buffer of 50 mM orthophosphoric acid.
# as §1
# IRAK4 = target: T1, IRAK4 (Homo sapiens, UniProt Q9NWZ3); test: Kinase profiling IRAK4; conditions: 100 micromolar inhibitor concentration, 100 is no change; for remaining activity at 100 µM: read-out: residual kinase activity, IRAK4
# T1 sequence (Q9NWZ3 1-460): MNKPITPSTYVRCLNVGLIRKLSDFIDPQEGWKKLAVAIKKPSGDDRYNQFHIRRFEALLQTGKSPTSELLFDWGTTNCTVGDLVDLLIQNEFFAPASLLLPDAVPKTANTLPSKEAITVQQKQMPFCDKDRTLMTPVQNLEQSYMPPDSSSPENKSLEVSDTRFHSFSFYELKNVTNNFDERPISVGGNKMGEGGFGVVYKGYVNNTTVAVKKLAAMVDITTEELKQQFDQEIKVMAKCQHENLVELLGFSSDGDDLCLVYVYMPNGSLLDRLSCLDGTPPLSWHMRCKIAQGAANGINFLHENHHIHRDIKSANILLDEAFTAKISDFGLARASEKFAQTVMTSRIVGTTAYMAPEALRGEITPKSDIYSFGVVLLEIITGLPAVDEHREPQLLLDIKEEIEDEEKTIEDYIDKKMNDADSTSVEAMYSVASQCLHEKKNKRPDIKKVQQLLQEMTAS
# Description: as §1
# CHK2 = CHK2 (Homo sapiens, UniProt O96017); test: Kinase profiling CHK2; conditions: 100 micromolar inhibitor concentration, 100 is no change; for remaining activity at 100 µM: read-out: residual kinase activity, CHK2
# Sequence of CHK2 (O96017 whole entry, species assumed): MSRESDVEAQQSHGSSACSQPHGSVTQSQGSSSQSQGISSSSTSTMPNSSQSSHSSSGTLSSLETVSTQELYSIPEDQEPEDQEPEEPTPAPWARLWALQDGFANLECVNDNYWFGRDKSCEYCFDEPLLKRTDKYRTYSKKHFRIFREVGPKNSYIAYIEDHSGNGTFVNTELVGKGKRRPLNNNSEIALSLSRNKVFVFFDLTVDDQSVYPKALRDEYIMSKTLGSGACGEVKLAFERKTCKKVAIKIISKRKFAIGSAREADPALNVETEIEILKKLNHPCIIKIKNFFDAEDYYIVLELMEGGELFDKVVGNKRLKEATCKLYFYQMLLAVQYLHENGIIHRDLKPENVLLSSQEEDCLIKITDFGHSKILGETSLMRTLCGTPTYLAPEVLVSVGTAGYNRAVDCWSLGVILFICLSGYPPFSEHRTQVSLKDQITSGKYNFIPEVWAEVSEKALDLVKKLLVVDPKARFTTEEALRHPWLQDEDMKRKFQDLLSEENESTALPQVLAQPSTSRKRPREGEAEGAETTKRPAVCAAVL
# Description: as §1
# VEG-FR = test: Kinase profiling VEG-FR; conditions: 100 micromolar inhibitor concentration; 100 is no change
# Description: as §1
# MST2 = target: T2, MST2 (Homo sapiens, UniProt Q13188); test: Kinase profiling MST2; conditions: 100 micromolar inhibitor concentration, 100 is no change; for remaining activity at 100 µM: read-out: residual kinase activity, MST2
# T2 sequence (Q13188 1-491): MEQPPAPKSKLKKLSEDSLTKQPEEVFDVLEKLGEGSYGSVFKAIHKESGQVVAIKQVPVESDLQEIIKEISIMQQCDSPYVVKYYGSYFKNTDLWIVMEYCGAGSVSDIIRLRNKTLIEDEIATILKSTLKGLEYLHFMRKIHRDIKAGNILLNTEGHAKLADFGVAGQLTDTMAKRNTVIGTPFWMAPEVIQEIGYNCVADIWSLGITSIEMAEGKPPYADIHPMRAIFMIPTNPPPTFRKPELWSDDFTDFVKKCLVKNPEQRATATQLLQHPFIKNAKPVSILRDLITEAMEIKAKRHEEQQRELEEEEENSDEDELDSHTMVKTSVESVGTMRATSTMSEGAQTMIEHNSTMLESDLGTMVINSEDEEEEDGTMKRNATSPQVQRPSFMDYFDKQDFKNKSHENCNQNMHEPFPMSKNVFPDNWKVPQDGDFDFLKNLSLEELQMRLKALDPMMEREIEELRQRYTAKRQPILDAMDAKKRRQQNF
# Description: as §1
# TAK1 = target: T3, TAK1 (Homo sapiens, UniProt O43318); test: Kinase profiling TAK1; conditions: 100 micromolar inhibitor concentration, 100 is no change; for remaining activity at 100 µM: read-out: residual kinase activity, TAK1
# T3 sequence (O43318 1-303 limits assumed): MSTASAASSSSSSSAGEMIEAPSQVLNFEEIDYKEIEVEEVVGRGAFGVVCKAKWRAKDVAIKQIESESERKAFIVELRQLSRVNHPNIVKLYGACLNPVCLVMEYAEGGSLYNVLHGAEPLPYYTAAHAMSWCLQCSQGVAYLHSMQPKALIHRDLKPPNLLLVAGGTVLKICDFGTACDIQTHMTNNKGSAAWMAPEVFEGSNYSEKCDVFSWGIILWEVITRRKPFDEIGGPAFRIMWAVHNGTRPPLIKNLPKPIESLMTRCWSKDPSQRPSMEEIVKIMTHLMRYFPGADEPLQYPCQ
# T3 sequence (Q15750 437-504 partner limits assumed): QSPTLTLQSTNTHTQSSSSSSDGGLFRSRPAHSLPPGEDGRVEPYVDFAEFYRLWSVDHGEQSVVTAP
# Description: as §1
# EPH-A2 = EPH-A2 (Homo sapiens, UniProt P29317); test: Kinase profiling EPH-A2; conditions: 100 micromolar inhibitor concentration, 100 is no change; for remaining activity at 100 µM: read-out: residual kinase activity, EPH-A2
# Sequence of EPH-A2 (P29317 24-976, species assumed): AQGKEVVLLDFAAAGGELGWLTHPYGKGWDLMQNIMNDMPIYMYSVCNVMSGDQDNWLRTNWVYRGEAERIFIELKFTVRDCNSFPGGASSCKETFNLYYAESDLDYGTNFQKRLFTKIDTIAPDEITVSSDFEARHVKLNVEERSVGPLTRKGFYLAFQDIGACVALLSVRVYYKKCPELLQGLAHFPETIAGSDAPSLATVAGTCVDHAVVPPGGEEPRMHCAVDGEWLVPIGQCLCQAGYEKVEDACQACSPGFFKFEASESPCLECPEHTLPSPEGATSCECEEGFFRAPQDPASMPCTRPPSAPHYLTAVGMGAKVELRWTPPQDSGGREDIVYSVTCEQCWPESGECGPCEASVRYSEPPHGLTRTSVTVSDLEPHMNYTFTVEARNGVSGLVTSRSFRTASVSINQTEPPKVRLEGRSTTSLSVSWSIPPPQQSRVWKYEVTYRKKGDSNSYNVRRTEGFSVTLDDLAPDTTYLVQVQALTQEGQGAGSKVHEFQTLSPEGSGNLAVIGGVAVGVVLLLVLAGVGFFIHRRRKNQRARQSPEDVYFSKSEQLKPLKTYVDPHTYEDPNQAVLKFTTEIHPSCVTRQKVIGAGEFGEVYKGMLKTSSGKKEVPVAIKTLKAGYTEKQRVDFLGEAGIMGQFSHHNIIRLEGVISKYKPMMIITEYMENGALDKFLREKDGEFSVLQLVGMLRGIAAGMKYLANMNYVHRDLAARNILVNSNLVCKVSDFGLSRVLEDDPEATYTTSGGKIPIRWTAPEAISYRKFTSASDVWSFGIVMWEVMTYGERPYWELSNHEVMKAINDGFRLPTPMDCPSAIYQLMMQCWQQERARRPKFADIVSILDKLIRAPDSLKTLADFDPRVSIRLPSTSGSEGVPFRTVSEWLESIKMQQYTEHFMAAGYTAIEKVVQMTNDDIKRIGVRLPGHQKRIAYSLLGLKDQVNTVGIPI
# Description: as §1
# PKCγ = PKCγ (Homo sapiens, UniProt P05129); test: Kinase profiling PKCγ; conditions: 100 micromolar inhibitor concentration, 100 is no change; for remaining activity at 100 µM: read-out: residual kinase activity, PKCγ
# Description: as §1
# PKBb = PKBb (Homo sapiens, UniProt P31751); test: Kinase profiling PKBb; conditions: for residual kinase activity, PKBb: 100 micromolar inhibitor concentration, 100 is no change; for remaining activity at 100 µM: read-out: residual kinase activity, PKBb
# Description: as §1
# ERK1 = ERK1 (Homo sapiens, UniProt P27361); test: Kinase profiling ERK1; conditions: 100 micromolar inhibitor concentration, 100 is no change; for remaining activity at 100 µM: read-out: residual kinase activity, ERK1
# Sequence of ERK1 (P27361 whole entry, species assumed): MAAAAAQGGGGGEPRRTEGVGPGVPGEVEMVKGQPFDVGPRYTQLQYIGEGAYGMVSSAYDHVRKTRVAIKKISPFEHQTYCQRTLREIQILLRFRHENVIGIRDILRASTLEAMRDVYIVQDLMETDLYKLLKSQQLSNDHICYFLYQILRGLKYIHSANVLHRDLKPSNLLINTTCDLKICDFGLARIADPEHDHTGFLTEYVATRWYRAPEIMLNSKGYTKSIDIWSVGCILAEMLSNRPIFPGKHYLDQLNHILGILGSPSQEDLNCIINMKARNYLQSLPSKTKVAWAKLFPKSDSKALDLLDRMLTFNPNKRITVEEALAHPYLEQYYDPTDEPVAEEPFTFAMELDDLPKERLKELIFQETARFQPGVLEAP
# Description: as §1
# MARK3 = MARK3 (Homo sapiens, UniProt P27448); test: Kinase profiling MARK3; conditions: 100 micromolar inhibitor concentration, 100 is no change; for remaining activity at 100 µM: read-out: residual kinase activity, MARK3
# Sequence of MARK3 (P27448 whole entry, species assumed): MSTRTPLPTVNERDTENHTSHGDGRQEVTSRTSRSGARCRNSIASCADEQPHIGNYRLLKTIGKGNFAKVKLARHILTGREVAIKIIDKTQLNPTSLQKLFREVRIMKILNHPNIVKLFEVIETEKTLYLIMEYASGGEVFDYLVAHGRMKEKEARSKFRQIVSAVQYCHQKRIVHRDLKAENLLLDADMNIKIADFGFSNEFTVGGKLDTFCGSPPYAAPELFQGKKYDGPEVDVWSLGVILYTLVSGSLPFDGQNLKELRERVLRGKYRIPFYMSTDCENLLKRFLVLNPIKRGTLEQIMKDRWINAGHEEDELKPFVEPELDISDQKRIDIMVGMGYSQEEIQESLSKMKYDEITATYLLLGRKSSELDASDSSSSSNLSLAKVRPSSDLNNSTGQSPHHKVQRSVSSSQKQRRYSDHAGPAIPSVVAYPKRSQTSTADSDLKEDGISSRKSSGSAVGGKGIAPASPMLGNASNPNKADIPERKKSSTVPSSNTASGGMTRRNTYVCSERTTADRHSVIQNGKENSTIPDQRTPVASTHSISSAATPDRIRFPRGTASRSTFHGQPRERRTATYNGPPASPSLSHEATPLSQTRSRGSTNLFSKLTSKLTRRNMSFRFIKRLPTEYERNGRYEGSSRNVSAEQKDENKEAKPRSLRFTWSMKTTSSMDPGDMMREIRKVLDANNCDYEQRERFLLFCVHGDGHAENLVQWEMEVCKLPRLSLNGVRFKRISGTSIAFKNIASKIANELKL
# Description: as §1
# RIPK2 = RIPK2 (Homo sapiens, UniProt O43353); test: Kinase profiling RIPK2; conditions: 100 micromolar inhibitor concentration, 100 is no change; for remaining activity at 100 µM: read-out: residual kinase activity, RIPK2
# Description: as §1
# SmMLCK = SmMLCK (Homo sapiens, UniProt Q15746); test: Kinase profiling SmMLCK; conditions: 100 micromolar inhibitor concentration, 100 is no change; for remaining activity at 100 µM: read-out: residual kinase activity, SmMLCK
# p38g MAPK = target: T4, p38g MAPK (Homo sapiens, UniProt P53778); test: Kinase profiling p38g MAPK; conditions: 100 micromolar inhibitor concentration, 100 is no change; for remaining activity at 100 µM: read-out: residual kinase activity, p38g MAPK
# T4 sequence (P53778 1-367): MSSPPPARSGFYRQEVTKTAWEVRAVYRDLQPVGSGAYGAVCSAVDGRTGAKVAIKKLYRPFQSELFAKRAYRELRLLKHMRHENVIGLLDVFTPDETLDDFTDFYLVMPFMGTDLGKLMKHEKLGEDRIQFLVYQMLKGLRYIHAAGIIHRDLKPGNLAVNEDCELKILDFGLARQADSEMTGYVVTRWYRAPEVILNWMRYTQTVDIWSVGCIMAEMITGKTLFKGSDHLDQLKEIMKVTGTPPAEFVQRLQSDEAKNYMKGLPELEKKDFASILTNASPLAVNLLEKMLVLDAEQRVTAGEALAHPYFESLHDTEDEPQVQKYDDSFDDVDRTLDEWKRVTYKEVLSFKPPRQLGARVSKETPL
# Description: as §1
# Sequence of PLK1 (P53350 whole entry, species assumed): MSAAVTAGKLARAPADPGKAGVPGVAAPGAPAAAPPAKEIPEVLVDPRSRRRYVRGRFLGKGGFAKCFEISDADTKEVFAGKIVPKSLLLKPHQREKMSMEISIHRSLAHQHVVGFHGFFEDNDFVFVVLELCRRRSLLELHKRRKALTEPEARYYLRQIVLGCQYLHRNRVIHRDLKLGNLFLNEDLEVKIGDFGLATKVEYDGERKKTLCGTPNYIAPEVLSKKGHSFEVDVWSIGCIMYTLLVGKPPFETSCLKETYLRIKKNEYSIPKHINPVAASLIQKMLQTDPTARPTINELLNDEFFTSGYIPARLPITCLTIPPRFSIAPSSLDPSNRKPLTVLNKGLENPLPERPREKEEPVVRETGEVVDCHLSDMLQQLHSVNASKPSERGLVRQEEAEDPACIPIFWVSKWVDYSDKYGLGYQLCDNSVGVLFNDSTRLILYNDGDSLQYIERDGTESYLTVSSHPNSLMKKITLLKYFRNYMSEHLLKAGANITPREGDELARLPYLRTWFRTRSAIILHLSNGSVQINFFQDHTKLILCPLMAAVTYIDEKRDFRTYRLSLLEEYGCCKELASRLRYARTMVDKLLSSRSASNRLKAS
Compound,"residual kinase activity, PLK1 (PLK1)","residual kinase activity, HIPK2 (HIPK2)","residual kinase activity, PRK2 (PRK2)","residual kinase activity, DYRK1A (DYRK1A)","residual kinase activity, IRAK4 (IRAK4)","residual kinase activity, CHK2 (CHK2)","residual kinase activity, VEG-FR (VEG-FR)","residual kinase activity, MST2 (MST2)","residual kinase activity, TAK1 (TAK1)","residual kinase activity, EPH-A2 (EPH-A2)","residual kinase activity, PKCγ (PKCγ)","residual kinase activity, PKBb (PKBb)","residual kinase activity, ERK1 (ERK1)","residual kinase activity, MARK3 (MARK3)","residual kinase activity, RIPK2 (RIPK2)","residual kinase activity, SmMLCK (SmMLCK)","residual kinase activity, p38g MAPK (p38g MAPK)",remaining activity at 100 µM (PLK1) [%],remaining activity at 100 µM (HIPK2) [%],remaining activity at 100 µM (PRK2) [%],other results
O=C(Nc1nc2ccc(O)cc2s1)c1ccncc1 [Compound 08-42],74,23,44,15,42,22,20,55,25,77,93,52,84,68,30,33,87,,,,
O=C(Nc1nc2cc(O)ccc2s1)c1ccccn1 [Compound 03-13],96,43,97,25,55,75,24,60,34,81,141,60,97,68,27,37,94,,,,
COc1ccc2sc(NC(C)=O)nc2c1 [Compound 03-21],,,,,,,71,,,,,,,,,,,90,25,67,remaining activity at 100 µM (DYRK1A): 2%; remaining activity at 100 µM (IRAK4): 52%; remaining activity at 100 µM (CHK2): 58%; remaining activity at 100 µM (MST2): 91%; remaining activity at 100 µM (TAK1): 50%; remaining activity at 100 µM (EPH-A2): 89%; remaining activity at 100 µM (PKCγ): 103%; remaining activity at 100 µM (PKBb): 92%; remaining activity at 100 µM (ERK1): 87%; remaining activity at 100 µM (MARK3): 72%; remaining activity at 100 µM (RIPK2): 29%; remaining activity at 100 µM (SmMLCK): 50%; remaining activity at 100 µM (p38g MAPK): 56%
CC(=O)Nc1nc2ccc(C#N)cc2s1 [Compound 01-94],,,,,,,11,,,,,,,,,,,108,23,70,remaining activity at 100 µM (DYRK1A): 9%; remaining activity at 100 µM (IRAK4): 10%; remaining activity at 100 µM (CHK2): 30%; remaining activity at 100 µM (MST2): 56%; remaining activity at 100 µM (TAK1): 17%; remaining activity at 100 µM (EPH-A2): 73%; remaining activity at 100 µM (PKCγ): 83%; remaining activity at 100 µM (PKBb): 98%; remaining activity at 100 µM (ERK1): 97%; remaining activity at 100 µM (MARK3): 50%; remaining activity at 100 µM (RIPK2): 17%; remaining activity at 100 µM (SmMLCK): 54%; remaining activity at 100 µM (p38g MAPK): 82%
CC(=O)Nc1nc2ccc(O)cc2s1 [Compound 01-71],,,,,,,9,,,,,,,,,,,97,14,36,remaining activity at 100 µM (DYRK1A): 20%; remaining activity at 100 µM (IRAK4): 13%; remaining activity at 100 µM (CHK2): 17%; remaining activity at 100 µM (MST2): 56%; remaining activity at 100 µM (TAK1): 11%; remaining activity at 100 µM (EPH-A2): 66%; remaining activity at 100 µM (PKCγ): 76%; remaining activity at 100 µM (PKBb): 57%; remaining activity at 100 µM (ERK1): 65%; remaining activity at 100 µM (MARK3): 46%; remaining activity at 100 µM (RIPK2): 22%; remaining activity at 100 µM (SmMLCK): 39%; remaining activity at 100 µM (p38g MAPK): 84%
O=C(Nc1nc2cc(O)ccc2s1)c1ccncc1 [Compound 03-11],76,67,77,50,69,93,58,84,55,84,101,82,88,75,60,63,93,,,,
